According to the supplement of paper PMC10307832:

Key:
Experiment in all cases: relative viability (nuclei count vs DMSO), 5 days (fraction); higher = more cells survive
[1] = compound: CC1=C(C(=O)N2C=CSC2=N1)CCN3CCC(=C(C4=CC=CC=C4)C5=CC=C(C=C5)F)CC3 + CC(=O)Nc1cccc(-n2c(=O)n(C3CC3)c(=O)c3c(Nc4ccc(I)cc4F)n(C)c(=O)c(C)c32)c1 [Trametinib] (partner 0.02 µM)
Outline: (§1)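 Lung cancer cell lines in 1536-well plates got either a single drug or a fixed anchor-drug dose together with five library-drug doses (not always all listed) in √10 steps, by pin tool, on the day after seeding. Nuclei were counted after 5 days, and relative viability is the treated-to-vehicle ratio of nuclei counts. Values are medians of duplicate plates.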

[2] = compound: CC1=C(C(=O)N2C=CSC2=N1)CCN3CCC(=C(C4=CC=CC=C4)C5=CC=C(C=C5)F)CC3 + COc1cccc2cc(-c3nc([C@H]4CC[C@H](C(=O)O)CC4)n4ncnc(N)c34)[nH]c12 [OSI-027] (partner 0.5 µM)
Outline: as §1

[3] = compound: CC1=C(C(=O)N2C=CSC2=N1)CCN3CCC(=C(C4=CC=CC=C4)C5=CC=C(C=C5)F)CC3 + CS(=O)(=O)CCNCc1ccc(-c2ccc3ncnc(Nc4ccc(OCc5cccc(F)c5)c(Cl)c4)c3c2)o1 [Lapatinib] (partner 2 µM)
Outline: as §1

[4] = compound: CC1=C(C(=O)N2C=CSC2=N1)CCN3CCC(=C(C4=CC=CC=C4)C5=CC=C(C=C5)F)CC3 + C[C@]1(O)C[C@@H](c2nc(-c3ccc4ccc(-c5ccccc5)nc4c3)c3c(N)nccn32)C1 [Linsitinib] (partner 1 µM)
Outline: as §1

| Cell Line | relative viability ([1]; first compound 0.08 µM) | relative viability ([1]; first compound 0.253 µM) | relative viability ([1]; first compound 0.8 µM) | relative viability ([1]; first compound 2.53 µM) | relative viability ([1]; first compound 8 µM) | relative viability ([2]; first compound 0.08 µM) | relative viability ([2]; first compound 0.253 µM) | relative viability ([2]; first compound 0.8 µM) | relative viability ([2]; first compound 2.53 µM) | relative viability ([2]; first compound 8 µM) | relative viability ([3]; first compound 0.08 µM) | relative viability ([3]; first compound 0.253 µM) | relative viability ([3]; first compound 0.8 µM) | relative viability ([3]; first compound 2.53 µM) | relative viability ([3]; first compound 8 µM) | relative viability ([4]; first compound 0.08 µM) | relative viability ([4]; first compound 0.253 µM) | relative viability ([4]; first compound 0.8 µM) | relative viability ([4]; first compound 2.53 µM) | relative viability ([4]; first compound 8 µM) |
| --- | --- | --- | --- | --- | --- | --- | --- | --- | --- | --- | --- | --- | --- | --- | --- | --- | --- | --- | --- | --- |
| LCLC-97TM1 | 0.183 | 0.18 | 0.23 | 0.172 | 0.151 | 0.585 | 0.585 | 0.507 | 0.487 | 0.369 | 0.7 | 1 | 1.08 | 1.03 | 0.677 | 0.185 | 0.161 | 0.19 | 0.197 | 0.164 |
| LK-2 | 0.629 | 0.723 | 0.886 | 0.801 | 0.477 | 0.242 | 0.188 | 0.156 | 0.18 | 0.212 | 0.764 | 0.772 | 1.01 | 0.903 | 0.633 | 0.548 | 0.531 | 0.846 | 0.502 | 0.529 |
| LOU-NH91 | 0.776 | 0.793 | 0.794 | 0.869 | 0.679 | 0.734 | 0.769 | 0.767 | 0.76 | 0.642 | 0.774 | 0.809 | 0.765 | 0.814 | 0.803 | 0.923 | 0.932 | 1.01 | 1.02 | 0.821 |
| LU99A | 0.584 | 0.522 | 0.586 | 0.502 | 0.353 | 0.333 | 0.313 | 0.254 | 0.276 | 0.25 | 0.894 | 1.04 | 0.998 | 1.06 | 0.835 | 0.565 | 0.495 | 0.517 | 0.666 | 0.446 |
| LXF-289 | 0.592 | 0.67 | 0.738 | 0.634 | 0.537 | 0.784 | 0.79 | 0.779 | 0.884 | 0.55 | 0.98 | 0.953 | 0.926 | 0.907 | 0.844 | 0.948 | 1.1 | 0.989 | 0.96 | 0.83 |
| NCI-H23 | 0.38 | 0.343 | 0.387 | 0.368 | 0.22 | 0.572 | 0.517 | 0.482 | 0.738 | 0.399 | 0.932 | 0.829 | 1.04 | 1.35 | 0.621 | 0.525 | 0.762 | 0.616 | 0.676 | 0.339 |
| NCI-H322M | 0.478 | 0.424 | 0.558 | 0.604 | 0.469 | 0.522 | 0.509 | 0.547 | 0.596 | 0.442 | 0.581 | 0.613 | 0.612 | 0.554 | 0.611 | 0.808 | 0.924 | 0.926 | 1.01 | 0.702 |
| NCI-H358 | 0.12 | 0.121 | 0.127 | 0.133 | 0.136 | 0.681 | 0.666 | 0.666 | 1.13 | 0.469 | 0.442 | 0.535 | 0.427 | 0.44 | 0.404 | 0.819 | 0.74 | 0.779 | 0.874 | 0.561 |
| NCI-H460 | 0.129 | 0.132 | 0.129 | 0.124 | 0.129 | 0.951 | 0.633 | 0.605 | 0.712 | 0.191 | 0.629 | 1.32 | 1.06 | 0.93 | 0.496 | 0.475 | 0.729 | 0.783 | 1.13 | 0.435 |
| NCI-H520 | 0.712 | 0.625 | 0.631 | 0.778 | 0.393 | 0.251 | 0.247 | 0.251 | 0.212 | 0.233 | 0.78 | 0.693 | 0.942 | 1.1 | 0.684 | 1.13 | 0.723 | 0.902 | 0.943 | 0.768 |
| NCI-H596 | 0.703 | 0.815 | 0.913 | 0.863 | 0.708 | 0.668 | 0.788 | 0.746 | 0.827 | 0.41 | 1.05 | 1.17 | 1.06 | 0.989 | 1.06 | 0.935 | 1.1 | 1.2 | 1.03 | 0.755 |
| NCI-H647 | 0.388 | 0.609 | 0.541 | 0.612 | 0.249 | 0.581 | 0.66 | 0.652 | 0.72 | 0.316 | 1.06 | 1.05 | 1.19 | 1.26 | 0.319 | 1.1 | 0.895 | 1.16 | 1.86 | 0.846 |
| NCI-H650 | 0.997 | 0.891 | 0.986 | 1.07 | 0.932 | 0.513 | 0.489 | 0.551 | 0.504 | 0.531 |  | 0.883 | 0.838 | 1.03 | 0.646 |  | 0.81 | 0.779 | 0.878 | 0.608 |
| NCI-H661 | 0.49 | 0.486 | 0.525 | 0.518 | 0.462 | 0.618 | 0.659 | 0.691 | 0.712 | 0.627 | 0.428 | 0.469 | 0.538 | 0.39 | 0.355 | 0.581 | 0.607 | 0.675 | 0.483 | 0.553 |
| NCI-H727 | 0.342 | 0.365 | 0.366 | 0.397 | 0.39 | 0.52 | 0.51 | 0.527 | 0.638 | 0.45 | 0.778 | 0.674 | 0.757 | 0.984 | 0.553 | 0.194 | 0.227 | 0.298 | 0.437 | 0.295 |
